Data taken from PubChem BioAssay (NCI).
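48-hour exposure; five concentrations; linearly interpolated endpoints. GI50: concentration for 50% inhibition of growth. TGI: concentration producing complete growth inhibition.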

Legend:
Experiment in all cases: inhibition of tumour cell growth, NCI panel, 48 h
MCF7 breast = system: MCF7 breast
OVCAR-4 ovarian = system: OVCAR-4 ovarian
SF-268 CNS = system: SF-268 CNS
BT-549 breast = system: BT-549 breast
MALME-3M melanoma = system: MALME-3M melanoma
HOP-62 NSCLC = system: HOP-62 NSCLC
IGROV1 ovarian = system: IGROV1 ovarian
LOX IMVI melanoma = system: LOX IMVI melanoma
KM12 colon = system: KM12 colon
SF-295 CNS = system: SF-295 CNS
NCI-H226 lung = system: NCI-H226 lung
HOP-92 NSCLC = system: HOP-92 NSCLC
U251 CNS = system: U251 CNS
NCI/ADR-RES ovarian = system: NCI/ADR-RES ovarian
PC-3 prostate = system: PC-3 prostate
UACC-257 melanoma = system: UACC-257 melanoma
HL-60(TB) leukemia = system: HL-60(TB) leukemia
EKVX NSCLC = system: EKVX NSCLC
MDA-MB-231 breast = system: MDA-MB-231 breast
HCT-116 colon = system: HCT-116 colon
OVCAR-3 ovarian = system: OVCAR-3 ovarian
SK-OV-3 ovarian = system: SK-OV-3 ovarian
SK-MEL-5 melanoma = system: SK-MEL-5 melanoma
SNB-19 CNS = system: SNB-19 CNS
MOLT-4 leukemia = system: MOLT-4 leukemia
HCC-2998 colon = system: HCC-2998 colon
DU-145 prostate = system: DU-145 prostate
SR leukemia = system: SR leukemia
T-47D breast = system: T-47D breast
OVCAR-8 ovarian = system: OVCAR-8 ovarian
CCRF-CEM leukemia = system: CCRF-CEM leukemia
SK-MEL-28 melanoma = system: SK-MEL-28 melanoma
HS 578T breast = system: HS 578T breast
SW-620 colon = system: SW-620 colon
UACC-62 melanoma = system: UACC-62 melanoma
OVCAR-5 ovarian = system: OVCAR-5 ovarian
A549 NSCLC = system: A549 NSCLC
SN12C renal = system: SN12C renal
NCI-H460 lung = system: NCI-H460 lung
TK-10 renal = system: TK-10 renal
HCT-15 colon = system: HCT-15 colon
HT29 colon = system: HT29 colon
SK-MEL-2 melanoma = system: SK-MEL-2 melanoma
SNB-75 CNS = system: SNB-75 CNS
NCI-H23 lung = system: NCI-H23 lung
M14 melanoma = system: M14 melanoma
NCI-H522 lung = system: NCI-H522 lung
A498 renal = system: A498 renal
786-0 renal = system: 786-0 renal
ACHN renal = system: ACHN renal
SF-539 CNS = system: SF-539 CNS
UO-31 renal = system: UO-31 renal
MDA-MB-435 = system: MDA-MB-435
RXF 393 renal = system: RXF 393 renal

With CN1CC=C(c2cc(NC(=O)Nc3ccc(Oc4ccnc(NC(=O)C5CC5)c4)c(F)c3)cc(C(F)(F)F)c2)CC1 the GI50 (MCF7 breast) was 0.153 µM, the TGI (MCF7 breast) was 0.693 µM and the GI50 (OVCAR-4 ovarian) was 0.26 µM. The TGI (OVCAR-4 ovarian) was 2.35 µM, the GI50 (SF-268 CNS) was 0.206 µM and the TGI (SF-268 CNS) was 1.41 µM. It also gave a GI50 (BT-549 breast) of 1.6 µM, a TGI (BT-549 breast) of 3.87 µM and a GI50 (MALME-3M melanoma) of 0.289 µM. The TGI (MALME-3M melanoma) was 1.13 µM, the GI50 (HOP-62 NSCLC) was 0.194 µM and the TGI (HOP-62 NSCLC) was 1.12 µM. For the same compound, the GI50 (IGROV1 ovarian) was 0.244 µM, the TGI (IGROV1 ovarian) was 1.34 µM and the GI50 (LOX IMVI melanoma) was 0.181 µM. It also gave a TGI (LOX IMVI melanoma) of 0.645 µM, a GI50 (KM12 colon) of 0.0332 µM and a TGI (KM12 colon) of 0.68 µM. For the same compound, the GI50 (SF-295 CNS) was 0.933 µM, the TGI (SF-295 CNS) was 2.94 µM and the GI50 (NCI-H226 lung) was 1.35 µM. For the same compound, the TGI (NCI-H226 lung) was 4.03 µM, the GI50 (HOP-92 NSCLC) was 1.55 µM and the TGI (HOP-92 NSCLC) was 3.58 µM. For the same compound, the GI50 (U251 CNS) was 0.208 µM, the TGI (U251 CNS) was 0.824 µM and the GI50 (NCI/ADR-RES ovarian) was 2.71 µM. It also gave a TGI (NCI/ADR-RES ovarian) of 13.4 µM, a GI50 (PC-3 prostate) of 0.242 µM and a TGI (PC-3 prostate) of 1.25 µM. For the same compound, the GI50 (UACC-257 melanoma) was 1.34 µM, the TGI (UACC-257 melanoma) was 3.24 µM and the GI50 (HL-60(TB) leukemia) was 0.183 µM. For the same compound, the TGI (HL-60(TB) leukemia) was 0.704 µM, the GI50 (EKVX NSCLC) was 0.359 µM and the TGI (EKVX NSCLC) was 1.91 µM. For the same compound, the GI50 (MDA-MB-231 breast) was 0.176 µM, the TGI (MDA-MB-231 breast) was 0.806 µM and the GI50 (HCT-116 colon) was 0.167 µM. The TGI (HCT-116 colon) was 1.68 µM, the GI50 (OVCAR-3 ovarian) was 0.234 µM and the TGI (OVCAR-3 ovarian) was 4.93 µM. It also gave a GI50 (SK-OV-3 ovarian) of 2.74 µM, a TGI (SK-OV-3 ovarian) of 7.25 µM and a GI50 (SK-MEL-5 melanoma) of 0.853 µM. The TGI (SK-MEL-5 melanoma) was 1.59 µM, the GI50 (SNB-19 CNS) was 0.227 µM and the TGI (SNB-19 CNS) was 1.48 µM. The GI50 (MOLT-4 leukemia) was 0.202 µM, the TGI (MOLT-4 leukemia) was 0.943 µM and the GI50 (HCC-2998 colon) was 0.281 µM. For the same compound, the TGI (HCC-2998 colon) was 1.97 µM, the GI50 (DU-145 prostate) was 0.212 µM and the TGI (DU-145 prostate) was 1.62 µM. It also gave a GI50 (SR leukemia) of 0.152 µM, a TGI (SR leukemia) of 0.863 µM and a GI50 (T-47D breast) of 1.37 µM. The TGI (T-47D breast) was 3.99 µM, the GI50 (OVCAR-8 ovarian) was 0.238 µM and the TGI (OVCAR-8 ovarian) was 5.12 µM. The GI50 (CCRF-CEM leukemia) was 0.126 µM, the TGI (CCRF-CEM leukemia) was 0.702 µM and the GI50 (SK-MEL-28 melanoma) was 1.23 µM. For the same compound, the TGI (SK-MEL-28 melanoma) was 3.07 µM, the GI50 (HS 578T breast) was 0.982 µM and the TGI (HS 578T breast) was 3.09 µM. It also gave a GI50 (SW-620 colon) of 0.196 µM, a TGI (SW-620 colon) of 0.556 µM and a GI50 (UACC-62 melanoma) of 1.1 µM. It also gave a TGI (UACC-62 melanoma) of 2.25 µM, a GI50 (OVCAR-5 ovarian) of 0.289 µM and a TGI (OVCAR-5 ovarian) of 2.44 µM. The GI50 (A549 NSCLC) was 0.247 µM, the TGI (A549 NSCLC) was 1.8 µM and the GI50 (SN12C renal) was 0.159 µM. The TGI (SN12C renal) was 1.27 µM, the GI50 (NCI-H460 lung) was 0.194 µM and the TGI (NCI-H460 lung) was 0.66 µM. The GI50 (TK-10 renal) was 1.62 µM, the TGI (TK-10 renal) was 3.91 µM and the GI50 (HCT-15 colon) was 1.08 µM. The TGI (HCT-15 colon) was 4.33 µM, the GI50 (HT29 colon) was 0.166 µM and the TGI (HT29 colon) was 0.678 µM. The GI50 (SK-MEL-2 melanoma) was 1.13 µM, the TGI (SK-MEL-2 melanoma) was 2.26 µM and the GI50 (SNB-75 CNS) was 1.53 µM. The TGI (SNB-75 CNS) was 2.95 µM, the GI50 (NCI-H23 lung) was 0.172 µM and the TGI (NCI-H23 lung) was 0.712 µM. For the same compound, the GI50 (M14 melanoma) was 0.524 µM, the TGI (M14 melanoma) was 1.48 µM and the GI50 (NCI-H522 lung) was 0.828 µM. It also gave a TGI (NCI-H522 lung) of 1.84 µM, a GI50 (A498 renal) of 2.05 µM and a TGI (A498 renal) of 3.9 µM. It also gave a GI50 (786-0 renal) of 0.232 µM, a TGI (786-0 renal) of 0.908 µM and a GI50 (ACHN renal) of 0.968 µM. The TGI (ACHN renal) was 2.67 µM, the GI50 (SF-539 CNS) was 0.888 µM and the TGI (SF-539 CNS) was 1.86 µM. It also gave a GI50 (UO-31 renal) of 1.58 µM, a TGI (UO-31 renal) of 3.57 µM and a GI50 (MDA-MB-435) of 0.429 µM. It also gave a TGI (MDA-MB-435) of 1.17 µM, a GI50 (RXF 393 renal) of 0.172 µM and a TGI (RXF 393 renal) of 0.411 µM.
